Literature values as cited in US11173121B2, “Pellets having a multi-layer structure for delayed release of the active substance in the distal colon” (Dr. Falk Pharma GmbH, priority 2018, dated 2021).

Structure (SMILES): CCCC1O[C@@H]2C[C@H]3[C@@H]4CCC5=CC(=O)C=C[C@]5(C)[C@H]4[C@@H](O)C[C@]3(C)[C@]2(C(=O)CO)O1 (stereo partly shown) [budesonide]
- pKa value: 12.85±0.10
